Data as given in the supplement of paper PMC10307832.

Tests used:
Experiment in all cases: relative viability (nuclei count vs DMSO), 5 days (fraction); higher = more cells survive
XMD8-85 + Crizotinib = compound: CN1CCN(CC1)C2=CC(=C(C=C2)NC3=NC=C4C(=N3)N(C5=CC=CC=C5C(=O)N4C)C)OC [XMD8-85] + C[C@@H](Oc1cc(-c2cnn(C3CCNCC3)c2)cnc1N)c1c(Cl)ccc(F)c1Cl [Crizotinib] (partner 1 µM)
Method in brief: (§1)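 For relative viability, nuclei counts in treated wells were divided by those in vehicle wells. Lung cancer cell lines had been pin-tool dosed in 1536-well plates the day after seeding and cultured for 5 days, then fixed and stained in one step (final 0.05% Triton X-100, 1% formaldehyde, 1 ug/ml Hoechst) and imaged at 4×. Doses were one drug alone or a fixed anchor-drug dose plus five library-drug doses (not always all listed) in √10 steps, and values are duplicate-plate medians.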

XMD8-85 + Linsitinib = compound: CN1CCN(CC1)C2=CC(=C(C=C2)NC3=NC=C4C(=N3)N(C5=CC=CC=C5C(=O)N4C)C)OC [XMD8-85] + C[C@]1(O)C[C@@H](c2nc(-c3ccc4ccc(-c5ccccc5)nc4c3)c3c(N)nccn32)C1 [Linsitinib] (partner 1 µM)
Method in brief: as §1

4EGI-1 + Palbociclib = compound: O=C(O)C(Cc1ccccc1[N+](=O)[O-])=NNc1nc(-c2ccc(Cl)c(Cl)c2)cs1 (mixture of isomers) [4EGI-1] + CC(=O)c1c(C)c2cnc(Nc3ccc(N4CCNCC4)cn3)nc2n(C2CCCC2)c1=O [Palbociclib] (partner 0.5 µM)
Method in brief: as §1

4EGI-1 + Decitabine = compound: O=C(O)C(Cc1ccccc1[N+](=O)[O-])=NNc1nc(-c2ccc(Cl)c(Cl)c2)cs1 (mixture of isomers) [4EGI-1] + Nc1ncn([C@H]2C[C@H](O)[C@@H](CO)O2)c(=O)n1 [Decitabine] (partner 2 µM)
Method in brief: as §1

| Cell Line | relative viability (XMD8-85 + Crizotinib; first compound 0.08 µM) | relative viability (XMD8-85 + Crizotinib; first compound 0.253 µM) | relative viability (XMD8-85 + Crizotinib; first compound 0.8 µM) | relative viability (XMD8-85 + Crizotinib; first compound 2.53 µM) | relative viability (XMD8-85 + Crizotinib; first compound 8 µM) | relative viability (XMD8-85 + Linsitinib; first compound 0.08 µM) | relative viability (XMD8-85 + Linsitinib; first compound 0.253 µM) | relative viability (XMD8-85 + Linsitinib; first compound 0.8 µM) | relative viability (XMD8-85 + Linsitinib; first compound 2.53 µM) | relative viability (XMD8-85 + Linsitinib; first compound 8 µM) | relative viability (4EGI-1 + Palbociclib; first compound 0.5 µM) | relative viability (4EGI-1 + Palbociclib; first compound 1.581 µM) | relative viability (4EGI-1 + Palbociclib; first compound 5 µM) | relative viability (4EGI-1 + Palbociclib; first compound 15.81 µM) | relative viability (4EGI-1 + Palbociclib; first compound 50 µM) | relative viability (4EGI-1 + Decitabine; first compound 0.5 µM) | relative viability (4EGI-1 + Decitabine; first compound 1.581 µM) | relative viability (4EGI-1 + Decitabine; first compound 5 µM) | relative viability (4EGI-1 + Decitabine; first compound 15.81 µM) | relative viability (4EGI-1 + Decitabine; first compound 50 µM) |
| --- | --- | --- | --- | --- | --- | --- | --- | --- | --- | --- | --- | --- | --- | --- | --- | --- | --- | --- | --- | --- |
| COR-L23 | 0.739 | 0.561 | 0.723 | 0.631 | 0.299 | 0.972 | 0.989 | 1.02 | 0.99 | 0.497 | 0.382 | 0.214 | 0.3 | 0.205 | 0.101 | 0.473 | 0.343 | 0.474 | 0.291 | 0.171 |
| NCI-H1793 |  |  |  |  |  | 0.78 | 0.703 | 1.04 | 0.976 | 0.907 | 0.339 | 0.333 | 0.329 | 0.235 | 0.205 | 0.557 | 0.333 | 0.442 | 0.427 | 0.238 |
| NCI-H2085 | 0.76 | 0.738 | 0.795 | 0.859 | 0.559 | 0.585 | 0.943 | 0.935 | 0.885 | 0.674 | 0.518 | 0.462 | 0.453 | 0.474 | 0.339 | 0.536 | 0.578 | 0.513 | 0.488 | 0.317 |
| SW 900 |  |  |  |  |  |  |  |  |  |  | 0.552 | 0.573 | 0.69 | 0.395 | 0.234 | 0.447 | 0.406 | 0.464 | 0.396 | 0.283 |
| NCI-H520 | 0.796 | 0.572 | 0.914 | 0.673 | 0.324 | 0.86 | 0.914 | 1.16 | 0.849 | 0.67 | 0.27 | 0.225 | 0.266 | 0.223 | 0.105 | 0.568 | 0.499 | 0.499 | 0.562 | 0.25 |
| NCI-H358 | 0.674 | 0.465 | 0.816 | 0.506 | 0.248 | 0.756 | 0.832 |  | 0.643 | 0.442 | 0.12 | 0.153 | 0.152 | 0.153 | 0.12 | 0.218 | 0.203 | 0.189 | 0.138 | 0.115 |
| NCI-H1650 | 1.01 | 0.773 | 1.12 | 0.715 | 0.256 |  |  |  |  |  | 0.417 |  | 0.331 | 0.255 | 0.141 | 0.37 |  | 0.421 | 0.256 | 0.293 |
| Calu-6 | 0.689 | 0.607 | 0.894 |  | 0.396 | 0.985 | 0.946 | 0.994 | 0.894 | 0.788 |  |  |  |  |  |  |  |  |  |  |
| NCI-H1299 | 0.983 | 0.962 | 1.03 | 0.928 | 0.601 | 0.881 | 1.06 | 0.973 | 0.981 | 0.654 |  |  |  |  |  |  |  |  |  |  |
| A549 | 0.704 | 0.711 | 0.872 | 0.855 | 0.426 | 0.602 | 0.476 | 0.579 | 0.592 | 0.594 |  |  |  |  |  | 0.345 | 0.377 | 0.259 | 0.177 | 0.0347 |
| NCI-H2342 |  |  |  |  |  |  |  |  |  |  | 0.506 | 0.547 | 0.582 | 0.59 | 0.539 | 0.757 | 0.704 | 0.742 | 0.737 | 0.731 |
| NCI-H1563 | 0.931 | 0.812 | 0.72 | 0.841 | 0.757 | 1.2 | 1.26 | 1.13 | 1.27 | 0.844 |  |  |  |  |  |  |  |  |  |  |
| NCI-H1395 |  |  |  |  |  | 0.792 | 1.09 | 1.35 | 1.01 | 1.08 | 0.697 |  | 0.634 | 0.594 | 0.485 | 0.746 |  | 0.817 | 0.695 | 0.515 |
| IA-LM | 0.678 | 0.889 | 0.91 |  | 0.127 | 0.385 | 0.563 | 0.562 | 0.393 | 0.166 |  |  |  |  |  |  |  |  |  |  |
| NCI-H2170 | 1.18 | 1.01 | 1.27 | 1.28 | 0.966 |  |  |  |  |  | 0.423 | 0.363 | 0.382 | 0.392 | 0.273 | 0.502 | 0.449 | 0.459 | 0.441 | 0.282 |
| NCI-H2228 | 0.454 | 0.442 | 0.521 | 0.528 | 0.26 | 0.587 | 0.944 | 0.609 | 0.858 | 0.444 | 1.22 | 0.708 | 0.785 | 0.787 | 0.314 |  |  |  |  |  |
| CAL-12T | 0.357 | 0.664 | 0.779 | 0.474 | 0.15 | 0.677 | 0.656 | 0.802 | 0.808 | 0.595 | 0.618 |  | 0.577 | 0.169 | 0.145 |  |  |  |  |  |
| NCI-H522 |  |  |  |  |  |  |  |  |  |  | 1.07 | 0.822 | 1.2 | 1.08 | 0.953 | 0.666 | 0.63 | 0.693 | 0.679 | 0.63 |
| ChaGo-K-1 | 1.08 | 1.15 | 1.44 | 0.887 |  |  |  |  |  |  | 0.95 | 0.936 | 0.973 | 1.01 | 0.556 | 0.538 | 0.511 | 0.523 | 0.479 | 0.352 |
